#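 96-well plates; 48 h exposure; 5 concentrations. Endpoints by linear interpolation between flanking doses. Not reached: highest tested concentration assigned. Here, GI50 denotes the concentration required for 50% inhibition of growth.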 Active and inactive are the calls of the source. Cut-off read from the data, not from the text of the source: active = GI50 up to about 1.1 µM and inactive = higher.
# Columns and labels:
# Test in all cases: DTP human tumour cell line panel, 48 h
# [1] = system: 786-0
# [2] = system: A498
# [3] = system: A549
# [4] = system: ACHN
# [5] = system: CAKI-1
# [6] = system: CCRF-CEM
# [7] = system: COLO 205
# [8] = system: DLD-1
# [9] = system: DMS-114
# [10] = system: DMS-273
# [11] = system: EKVX
# [12] = system: HCC 2998
# [13] = system: HCT-116
# [14] = system: HCT-15
# [15] = system: HL-60
# [16] = system: HOP-18
# [17] = system: HOP-62
# [18] = system: HOP-92
# [19] = system: HT-29
# [20] = system: IGROV-1
# [21] = system: K562
# [22] = system: KM12
# [23] = system: LOX IMVI
# [24] = system: LXFL 529
# [25] = system: M14
# [26] = system: M19-MEL
# [27] = system: MOLT-4
# [28] = system: Malme-3M
# [29] = system: NCI-H226
# [30] = system: NCI-H23
# [31] = system: NCI-H460
# [32] = system: NCI-H522
# [33] = system: OVCAR-3
# [34] = system: OVCAR-4
# [35] = system: OVCAR-5
# [36] = system: OVCAR-8
# [37] = system: RPMI-8226
# [38] = system: RXF 631
# [39] = system: SF-268
# [40] = system: SF-295
# [41] = system: SF-539
# [42] = system: SK-MEL-28
# [43] = system: SK-MEL-2
# [44] = system: SK-MEL-5
# [45] = system: SK-OV-3
# [46] = system: SN12C
# [47] = system: SNB-19
# [48] = system: SNB-75
# [49] = system: SNB-78
# [50] = system: SR
# [51] = system: SW-620
# [52] = system: TK-10
# [53] = system: U-251
# [54] = system: UACC-257
# [55] = system: UACC-62
# [56] = system: UO-31
# [57] = system: XF498
# [58] = system: KM-20L2
smiles,measurement,setting,value
Cn1ncc2c(Nc3ccc(Cl)cc3)c3ccccc3nc21,GI50,[1],14.1 µM (inactive)
same,GI50,[2],14.8 µM (inactive)
same,GI50,[3],15.3 µM (inactive)
same,GI50,[4],17 µM (inactive)
same,GI50,[5],21.8 µM (inactive)
same,GI50,[6],17.9 µM (inactive)
same,GI50,[7],19.7 µM (inactive)
same,GI50,[8],11.2 µM (inactive)
same,GI50,[9],13.4 µM (inactive)
same,GI50,[10],15.2 µM (inactive)
same,GI50,[11],> 10 µM (inactive)
same,GI50,[12],22.9 µM (inactive)
same,GI50,[13],12.2 µM (inactive)
same,GI50,[14],15.7 µM
same,GI50,[15],23.4 µM (inactive)
same,GI50,[16],22.3 µM (inactive)
same,GI50,[17],16.4 µM (inactive)
same,GI50,[18],17.6 µM (inactive)
same,GI50,[19],13.5 µM (inactive)
same,GI50,[20],21.2 µM (inactive)
same,GI50,[21],16.2 µM (inactive)
same,GI50,[22],18.7 µM (inactive)
same,GI50,[23],15.1 µM (inactive)
same,GI50,[24],18.6 µM (inactive)
same,GI50,[25],14.8 µM (inactive)
same,GI50,[26],19.3 µM (inactive)
same,GI50,[27],11.4 µM (inactive)
same,GI50,[28],20.2 µM (inactive)
same,GI50,[29],17.3 µM (inactive)
same,GI50,[30],> 10 µM (inactive)
same,GI50,[31],18.7 µM (inactive)
same,GI50,[32],19.4 µM (inactive)
same,GI50,[33],18.7 µM (inactive)
same,GI50,[34],12.4 µM (inactive)
same,GI50,[35],23.2 µM (inactive)
same,GI50,[36],14.8 µM (inactive)
same,GI50,[37],20.1 µM (inactive)
same,GI50,[38],13.1 µM (inactive)
same,GI50,[39],20.3 µM (inactive)
same,GI50,[40],17.7 µM (inactive)
same,GI50,[41],15.6 µM (inactive)
same,GI50,[42],15.3 µM (inactive)
same,GI50,[43],18.4 µM (inactive)
same,GI50,[44],13.6 µM (inactive)
same,GI50,[45],20.5 µM (inactive)
same,GI50,[46],16 µM (inactive)
same,GI50,[47],18 µM (inactive)
same,GI50,[48],10.8 µM (inactive)
same,GI50,[49],24.4 µM (inactive)
same,GI50,[50],14.9 µM (inactive)
same,GI50,[51],16.6 µM (inactive)
same,GI50,[52],21.4 µM (inactive)
same,GI50,[53],15.6 µM (inactive)
same,GI50,[54],17.3 µM (inactive)
same,GI50,[55],15.1 µM (inactive)
same,GI50,[56],> 10 µM (inactive)
same,GI50,[57],> 10 µM (inactive)
COC(=O)C12CC(C3CC31)C1CC12 (configuration not stated),GI50,[1],> 100 µM (inactive)
same,GI50,[2],> 100 µM (inactive)
same,GI50,[3],> 100 µM (inactive)
same,GI50,[4],> 100 µM (inactive)
same,GI50,[5],> 100 µM (inactive)
same,GI50,[6],> 100 µM (inactive)
same,GI50,[7],> 100 µM (inactive)
same,GI50,[8],> 100 µM (inactive)
same,GI50,[9],> 100 µM (inactive)
same,GI50,[10],> 100 µM (inactive)
same,GI50,[12],> 100 µM (inactive)
same,GI50,[13],> 100 µM (inactive)
same,GI50,[14],> 100 µM
same,GI50,[15],> 100 µM (inactive)
same,GI50,[16],> 100 µM (inactive)
same,GI50,[17],> 100 µM (inactive)
same,GI50,[18],59 µM (inactive)
same,GI50,[19],> 100 µM (inactive)
same,GI50,[20],> 100 µM (inactive)
same,GI50,[21],> 100 µM (inactive)
same,GI50,[58],> 100 µM (inactive)
same,GI50,[23],> 100 µM (inactive)
same,GI50,[24],> 100 µM (inactive)
same,GI50,[25],> 100 µM (inactive)
same,GI50,[26],> 100 µM (inactive)
same,GI50,[27],> 100 µM (inactive)
same,GI50,[28],> 100 µM (inactive)
same,GI50,[29],> 100 µM (inactive)
same,GI50,[30],> 100 µM (inactive)
same,GI50,[31],> 100 µM (inactive)
same,GI50,[33],> 100 µM (inactive)
same,GI50,[34],> 100 µM (inactive)
same,GI50,[35],> 100 µM (inactive)
same,GI50,[36],> 100 µM (inactive)
same,GI50,[37],> 100 µM (inactive)
same,GI50,[38],> 100 µM (inactive)
same,GI50,[39],> 100 µM (inactive)
same,GI50,[40],> 100 µM (inactive)
same,GI50,[42],> 100 µM (inactive)
same,GI50,[44],> 100 µM (inactive)
same,GI50,[45],> 100 µM (inactive)
same,GI50,[46],> 100 µM (inactive)
same,GI50,[47],> 100 µM (inactive)
same,GI50,[50],> 100 µM (inactive)
same,GI50,[51],> 100 µM (inactive)
same,GI50,[52],> 100 µM (inactive)
same,GI50,[53],> 100 µM (inactive)
same,GI50,[54],> 100 µM (inactive)
same,GI50,[55],> 100 µM (inactive)
same,GI50,[56],> 100 µM (inactive)
